Values of other authors as cited in US20100262098A1, “ABSORBENT ARTICLE WITH ODOUR CONTROL SUBSTANCE” (SCA Hygiene Products AB, priority 2007, published 2010).

Conditions: autoxidation at 100° C.; not treated with antioxidants

Structure (SMILES)	Relative rate of oxidation
CCCCCCCCCCCCCCCCCC(=O)O [Stearic acid]	0.6
CCCCC/C=C\C/C=C\CCCCCCCC(=O)O [Linoleic acid]	64
CCCCCCCC/C=C\CCCCCCCC(=O)O [Oleic acid]	6
